Measured values: paper PMC9090415, “Discovery of small molecule inhibitors of Plasmodium falciparum apicoplast DNA polymerase” (Journal of Enzyme Inhibition and Medicinal Chemistry, 2022)

Target: P. falciparum apicoplast DNA polymerase (Pf-apPOL) (Plasmodium falciparum, UniProt Q8ILY1)
Assay: Fluorescence-based high-throughput DNA polymerase assay (molecular beacon), primary screen and dose-response
Format: biochemical
Conditions: for DNA Pol: 90 min, 10 µM; for % inhibition apPOL 180' 2.5 / % inhibition apPOL 180' 5 / % inhibition apPOL 180' 10 / % inhibition apPOL 180' 20 / % inhibition apPOL 180' 40 / % inhibition apPOL 180' 80: read at 180'
Outline: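 Single-point screening used 10 µM compound with 20 nM polymerase, 20 nM hairpin substrate and 6 µM dNTPs for 90 min at 25 °C. Confirmatory titrations (2.5–80 µM) followed fluorescence at three times, and IC50 was derived from a fit including a cooperativity term n.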

P. falciparum apicoplast DNA polymerase (Pf-apPOL), sequence (Q8ILY1 entry or part of it): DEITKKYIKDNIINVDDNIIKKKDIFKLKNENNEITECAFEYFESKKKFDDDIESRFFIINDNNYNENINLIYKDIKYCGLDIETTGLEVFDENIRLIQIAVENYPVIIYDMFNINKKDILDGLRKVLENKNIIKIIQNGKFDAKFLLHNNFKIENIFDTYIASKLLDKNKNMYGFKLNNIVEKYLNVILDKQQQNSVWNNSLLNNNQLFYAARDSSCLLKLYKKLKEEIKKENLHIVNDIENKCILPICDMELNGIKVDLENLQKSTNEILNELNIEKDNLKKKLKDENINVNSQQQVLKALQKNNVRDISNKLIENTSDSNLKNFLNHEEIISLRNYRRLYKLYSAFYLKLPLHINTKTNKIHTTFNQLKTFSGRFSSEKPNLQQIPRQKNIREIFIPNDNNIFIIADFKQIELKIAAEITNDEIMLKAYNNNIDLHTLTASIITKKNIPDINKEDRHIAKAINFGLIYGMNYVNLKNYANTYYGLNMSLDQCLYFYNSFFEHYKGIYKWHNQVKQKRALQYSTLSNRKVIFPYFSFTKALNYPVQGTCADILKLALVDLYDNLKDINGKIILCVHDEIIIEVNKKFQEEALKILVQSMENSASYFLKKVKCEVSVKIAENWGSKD

C#CC(C=CC)OC(=O)c1ccccc1C(=O)O (stereo not drawn) [Molecule 61, CC=CC(OC(=O)c1ccccc1C(=O)O)C#C]
DNA Pol (186 hits, DNA Pol (screen value), unit not given): 84 | DNA Pol ('DNA Pol' (screen value), unit not given): 84 | % inhibition Apo pol 10' 2.5 (DRC-1, read at 10', concentration 2.5): 8.856% | % inhibition Apo pol 10' 5 (DRC-1, read at 10', concentration 5): 15.4135% | % inhibition Apo pol 10' 10 (DRC-1, read at 10', concentration 10): 32.6686% | % inhibition Apo pol 10' 20 (DRC-1, read at 10', concentration 20): 51.5021% | % inhibition Apo pol 10' 40 (DRC-1, read at 10', concentration 40): 73.1045% | % inhibition Apo pol 10' 80 (DRC-1, read at 10', concentration 80): 83.6168% | % inhibition Apol 90' 2.5 (DRC-1, read at 90', concentration 2.5): 1.5571% | % inhibition Apol 90' 5 (DRC-1, read at 90', concentration 5): 4.145% | % inhibition Apol 90' 10 (DRC-1, read at 90', concentration 10): 16.9852% | % inhibition Apol 90' 20 (DRC-1, read at 90', concentration 20): 30.9577% | % inhibition Apol 90' 40 (DRC-1, read at 90', concentration 40): 54.6934% | % inhibition Apol 90' 80 (DRC-1, read at 90', concentration 80): 70.5531% | % inhibition apPOL 180' 2.5 (DRC-1, concentration 2.5): -3.738% | % inhibition apPOL 180' 5 (DRC-1, concentration 5): -3.151% | % inhibition apPOL 180' 10 (DRC-1, concentration 10): 5.1086% | % inhibition apPOL 180' 20 (DRC-1, concentration 20): 14.9685% | % inhibition apPOL 180' 40 (DRC-1, concentration 40): 36.8949% | % inhibition apPOL 180' 80 (DRC-1, concentration 80): 55.2706% | % inhibition Apo pol 5' (DRC-2, concentration 80): 57% | % inhibition Apol 40' (DRC-2, concentration 80): 69% | % inhibition ApPOL 90' (DRC-2, concentration 20): 48% | % inhibition ApPOL 90' (DRC-2, concentration 40): 57% | % inhibition apPOL 180' (DRC-2, concentration 2.5): -4% | % inhibition apPOL 180' (DRC-2, concentration 5): -4% | % inhibition apPOL 180' (DRC-2, concentration 40): 48% | % inhibition apPOL 180' (DRC-2, concentration 80): 69% | % inhibition Apo pol 5' 2.5 (DRC-2, read at 5', concentration 2.5): 3.3% | % inhibition Apo pol 5' 5 (DRC-2, read at 5', concentration 5): 15% | % inhibition Apo pol 5' 10 (DRC-2, read at 5', concentration 10): 33% | % inhibition Apo pol 5' 20 (DRC-2, read at 5', concentration 20): 50% | % inhibition Apo pol 5' 40 (DRC-2, read at 5', concentration 40): 54% | % inhibition Apo pol 5' 80 (DRC-2, read at 5', concentration 80): 57% | % inhibition Apol 40' 2.5 (DRC-2, read at 40', concentration 2.5): 3% | % inhibition Apol 40' 5 (DRC-2, read at 40', concentration 5): 11% | % inhibition Apol 40' 10 (DRC-2, read at 40', concentration 10): 31% | % inhibition Apol 40' 20 (DRC-2, read at 40', concentration 20): 52% | % inhibition Apol 40' 40 (DRC-2, read at 40', concentration 40): 59% | % inhibition Apol 40' 80 (DRC-2, read at 40', concentration 80): 69% | % inhibition ApPOL 90' 2.5 (DRC-2, read at 90', concentration 2.5): 0.76% | % inhibition ApPOL 90' 5 (DRC-2, read at 90', concentration 5): 5.31% | % inhibition ApPOL 90' 10 (DRC-2, read at 90', concentration 10): 26% | % inhibition ApPOL 90' 20 (DRC-2, read at 90', concentration 20): 48% | % inhibition ApPOL 90' 40 (DRC-2, read at 90', concentration 40): 57% | % inhibition ApPOL 90' 80 (DRC-2, read at 90', concentration 80): 71% | % inhibition apPOL 180' 2.5 (DRC-2, concentration 2.5): -4% | % inhibition apPOL 180' 5 (DRC-2, concentration 5): -4% | % inhibition apPOL 180' 10 (DRC-2, concentration 10): 13% | % inhibition apPOL 180' 20 (DRC-2, concentration 20): 35% | % inhibition apPOL 180' 40 (DRC-2, concentration 40): 48% | % inhibition apPOL 180' 80 (DRC-2, concentration 80): 69%

O=C(c1c[nH]c2ncccc12)N1CCCC1 [Molecule 63, O=C(c1c[nH]c2c1cccn2)N1CCCC1]
DNA Pol ("DNA Pol" of the 186 hits list (screen value)): 28 | % inhibition Apo pol 10' (DRC-1, concentration 2.5): 5.209% | % inhibition Apo pol 10' (DRC-1, concentration 5): 6.34% | % inhibition Apo pol 10' (DRC-1, concentration 10): 30.6254% | % inhibition Apo pol 10' (DRC-1, concentration 20): 50.0486% | % inhibition Apo pol 10' (DRC-1, concentration 40): 59.3862% | % inhibition Apo pol 10' (DRC-1, concentration 80): 75.2483% | % inhibition Apol 90' (DRC-1, concentration 2.5): 5.771% | % inhibition Apol 90' (DRC-1, concentration 5): 3.06% | % inhibition Apol 90' (DRC-1, concentration 10): 21.9015% | % inhibition Apol 90' (DRC-1, concentration 20): 39.4898% | % inhibition Apol 90' (DRC-1, concentration 40): 47.3849% | % inhibition Apol 90' (DRC-1, concentration 80): 77.404% | % inhibition apPOL 180' (DRC-1, concentration 2.5): 3.366% | % inhibition apPOL 180' (DRC-1, concentration 5): -1.279% | % inhibition apPOL 180' (DRC-1, concentration 10): 12.4312% | % inhibition apPOL 180' (DRC-1, concentration 20): 25.4337% | % inhibition apPOL 180' (DRC-1, concentration 40): 33.3219% | % inhibition apPOL 180' (DRC-1, concentration 80): 74.0045% | % inhibition Apo pol 5' (DRC-2, concentration 2.5): 3% | % inhibition Apo pol 5' (DRC-2, concentration 5): 10% | % inhibition Apo pol 5' (DRC-2, concentration 10): 29% | % inhibition Apo pol 5' (DRC-2, concentration 20): 40% | % inhibition Apo pol 5' (DRC-2, concentration 40): 42% | % inhibition Apo pol 5' (DRC-2, concentration 80): 32% | % inhibition Apol 40' (DRC-2, concentration 2.5): 3.74% | % inhibition Apol 40' (DRC-2, concentration 5): 11% | % inhibition Apol 40' (DRC-2, concentration 10): 33% | % inhibition Apol 40' (DRC-2, concentration 20): 50% | % inhibition Apol 40' (DRC-2, concentration 40): 62% | % inhibition Apol 40' (DRC-2, concentration 80): 58% | % inhibition ApPOL 90' (DRC-2, concentration 2.5): 2.81% | % inhibition ApPOL 90' (DRC-2, concentration 5): 10% | % inhibition ApPOL 90' (DRC-2, concentration 10): 30% | % inhibition ApPOL 90' (DRC-2, concentration 20): 49% | % inhibition ApPOL 90' (DRC-2, concentration 40): 66% | % inhibition ApPOL 90' (DRC-2, concentration 80): 65% | % inhibition apPOL 180' (DRC-2, concentration 2.5): -1% | % inhibition apPOL 180' (DRC-2, concentration 5): 3.46% | % inhibition apPOL 180' (DRC-2, concentration 10): 21% | % inhibition apPOL 180' (DRC-2, concentration 20): 41% | % inhibition apPOL 180' (DRC-2, concentration 40): 65% | % inhibition apPOL 180' (DRC-2, concentration 80): 68% | DNA Pol (primary screen value, DNA Pol): 28
